According to ChEMBL document CHEMBL1201862, “PubChem BioAssay data set” (2004):
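Each compound was tested at five concentrations against cells in 96-well plates for 48 hours. GI50 marks 50% less growth.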 Active and inactive are the calls of the source. Rule as the data show it: active = GI50 up to about 1.1 µM and inactive = higher.

Tests used:
Experiment in all cases: growth of human tumour cells (NCI), 48 h
COLO 205 = tested on: COLO 205
LOX IMVI = tested on: LOX IMVI
NCI-H226 = tested on: NCI-H226
UACC-62 = tested on: UACC-62
A549 = tested on: A549
SNB-75 = tested on: SNB-75
MDA-MB-231 = tested on: MDA-MB-231
HCC 2998 = tested on: HCC 2998
M14 = tested on: M14
U-251 = tested on: U-251
OVCAR-5 = tested on: OVCAR-5
SF-295 = tested on: SF-295
NCI/ADR-RES = tested on: NCI/ADR-RES
SK-OV-3 = tested on: SK-OV-3
RXF 393 = tested on: RXF 393
SK-MEL-2 = tested on: SK-MEL-2
BT-549 = tested on: BT-549
TK-10 = tested on: TK-10
HOP-92 = tested on: HOP-92
SF-539 = tested on: SF-539

Structure (SMILES)	GI50 (COLO 205)	GI50 (LOX IMVI)	GI50 (NCI-H226)	GI50 (UACC-62)	GI50 (A549)	GI50 (SNB-75)	GI50 (MDA-MB-231)	GI50 (HCC 2998)	GI50 (M14)	GI50 (U-251)	GI50 (OVCAR-5)	GI50 (SF-295)	GI50 (NCI/ADR-RES)	GI50 (SK-OV-3)	GI50 (RXF 393)	GI50 (SK-MEL-2)	GI50 (BT-549)	GI50 (TK-10)	GI50 (HOP-92)	GI50 (SF-539)
C[C@@H](NC(=O)Nc1cccc(C(=O)Nc2cc(C(C)(C)C)ccc2C(=O)O)n1)c1ccccc1	27.3 µM (inactive)	19.3 µM (inactive)	38.3 µM (inactive)	19.7 µM (inactive)	44.3 µM (inactive)	32.1 µM (inactive)	23.4 µM (inactive)	50.8 µM (inactive)	31 µM (inactive)	16.1 µM (inactive)	33.4 µM (inactive)	25.2 µM (inactive)	> 100 µM (inactive)	43.8 µM (inactive)	21.5 µM (inactive)	18.1 µM (inactive)	37 µM (inactive)			
CCOC(=O)Nc1cc2c(c(N)n1)N=C(c1ccc(OC)cc1)CN2	0.00986 µM (active)	0.000315 µM (active)	0.368 µM (active)	< 0.0001 µM (active)	0.00258 µM (active)	0.000188 µM (active)		0.000925 µM (active)	0.000309 µM (active)	< 0.0001 µM (active)	0.0158 µM (active)	0.000269 µM (active)	0.00126 µM (active)	0.0385 µM (active)	0.0112 µM (active)	< 0.01 µM (active)	< 0.01 µM (active)	0.361 µM (active)	0.508 µM (active)	
CN(C)CCNC(=O)Cn1ccc(=O)c2cc([N+](=O)[O-])ccc21	> 100 µM (inactive)	> 100 µM (inactive)	> 100 µM (inactive)	> 100 µM (inactive)	> 100 µM (inactive)			> 100 µM (inactive)	> 100 µM (inactive)	> 100 µM (inactive)	> 100 µM (inactive)	> 100 µM (inactive)	> 100 µM (inactive)	> 100 µM (inactive)	> 100 µM (inactive)	> 100 µM (inactive)		> 100 µM (inactive)	> 100 µM (inactive)	> 100 µM (inactive)
c1ccc(C[P+]2(c3ccccc3)c3ccccc3-c3ccccc32)cc1	> 100 µM (inactive)	> 100 µM (inactive)	> 100 µM (inactive)	> 100 µM (inactive)	> 100 µM (inactive)	> 100 µM (inactive)	> 100 µM (inactive)	> 100 µM (inactive)	> 100 µM (inactive)			> 100 µM (inactive)		> 100 µM (inactive)	> 100 µM (inactive)		> 100 µM (inactive)	> 100 µM (inactive)	> 100 µM (inactive)	> 100 µM (inactive)
CC(=N)OC1CC2CCC1(C)C2(C)C (configuration not stated)	> 100 µM (inactive)	> 100 µM (inactive)	> 100 µM (inactive)	> 100 µM (inactive)	> 100 µM (inactive)	> 100 µM (inactive)	> 100 µM (inactive)	> 100 µM (inactive)	> 100 µM (inactive)	> 100 µM (inactive)	> 100 µM (inactive)	> 100 µM (inactive)		> 100 µM (inactive)	> 100 µM (inactive)		> 100 µM (inactive)	> 100 µM (inactive)	> 100 µM (inactive)	> 100 µM (inactive)
CN(C)/C=C1\CCc2ccc([N+](=O)[O-])cc2C1=O	25.5 µM (inactive)	19.6 µM (inactive)	> 100 µM (inactive)	24.5 µM (inactive)	> 100 µM (inactive)	> 100 µM (inactive)	17.4 µM (inactive)	70.8 µM (inactive)	89.9 µM (inactive)	75.7 µM (inactive)	> 100 µM (inactive)	> 100 µM (inactive)	75 µM (inactive)	> 100 µM (inactive)	> 100 µM (inactive)	> 100 µM (inactive)		> 100 µM (inactive)		
Sc1ncnc2nc[nH]c12 [MERCAPTOPURINE ANHYDROUS]	4.94 µM (inactive)	0.383 µM (active)	58.5 µM (inactive)	1.76 µM (inactive)	30.1 µM (inactive)	8.75 µM (inactive)	24.4 µM (inactive)	3.51 µM (inactive)	0.675 µM (active)	13.7 µM (inactive)	8.63 µM (inactive)	5.81 µM (inactive)	3.56 µM (inactive)	1.03 µM (active)	29.5 µM (inactive)	5.97 µM (inactive)		1.94 µM (inactive)	2.94 µM (inactive)	2.49 µM (inactive)
C=C1C(=O)O[C@@H]2C[C@@H](C)[C@@H]3C=CC(=O)[C@@]3(C)[C@@H](OC(=O)CC(=O)O[C@H]3[C@@H]4C(=C)C(=O)O[C@@H]4C[C@@H](C)[C@@H]4C=CC(=O)[C@]43C)[C@H]12	< 0.0148 µM (active)	< 0.0335 µM (active)	0.102 µM (active)	0.0306 µM (active)	0.431 µM (active)	0.136 µM (active)	0.0552 µM (active)	0.146 µM (active)	0.0235 µM (active)	0.0356 µM (active)	0.178 µM (active)	0.115 µM (active)		0.256 µM (active)	< 0.0112 µM (active)	0.0893 µM (active)	0.0386 µM (active)	0.117 µM (active)	0.0296 µM (active)	0.0252 µM (active)
OC1CCC(COC(c2ccccc2)(c2ccccc2)c2ccccc2)O1 (configuration not stated)	17.1 µM (inactive)	15.4 µM (inactive)	24.2 µM (inactive)	17.2 µM (inactive)	17.7 µM (inactive)	13.4 µM (inactive)	16.6 µM (inactive)	16.4 µM (inactive)	18.7 µM (inactive)	18.8 µM (inactive)	22.9 µM (inactive)	15.9 µM (inactive)	17.7 µM (inactive)	20.2 µM (inactive)		18.1 µM (inactive)	23.8 µM (inactive)	> 10 µM (inactive)		17.3 µM (inactive)
CCC(=O)Nc1ccc(NC(C#N)c2cccc(Oc3ccccc3)c2)cc1 (configuration not stated)	40.4 µM (inactive)	21.4 µM (inactive)	30.3 µM (inactive)	52 µM (inactive)	62.5 µM (inactive)	42 µM (inactive)			40.3 µM (inactive)		> 100 µM (inactive)	45.7 µM (inactive)	28.2 µM (inactive)	> 100 µM (inactive)	38.6 µM (inactive)	35 µM (inactive)	57.7 µM (inactive)		34.8 µM (inactive)	32.9 µM (inactive)
Cn1c(=O)n2c(=O)n(C)c(=O)n2c1=O	> 100 µM (inactive)	> 100 µM (inactive)	> 100 µM (inactive)	> 100 µM (inactive)	> 100 µM (inactive)	> 100 µM (inactive)	> 100 µM (inactive)	> 100 µM (inactive)	> 100 µM (inactive)	> 100 µM (inactive)	> 100 µM (inactive)		> 100 µM (inactive)	> 100 µM (inactive)	> 100 µM (inactive)	> 100 µM (inactive)	> 100 µM (inactive)	> 100 µM (inactive)		> 100 µM (inactive)
COc1ccc2[nH]c3c(c2c1)[C@H](c1ccccc1)C[C@@H]1C(=O)N(c2ccccc2)C(=O)[C@H]31	> 100 µM (inactive)	33.2 µM (inactive)	19.4 µM (inactive)	> 100 µM (inactive)	13.3 µM (inactive)	20.7 µM (inactive)		35.5 µM (inactive)	42.3 µM (inactive)	18 µM (inactive)	> 100 µM (inactive)	48.4 µM (inactive)		23.3 µM (inactive)	16 µM (inactive)	55.1 µM (inactive)		33.7 µM (inactive)	37.3 µM (inactive)	> 100 µM (inactive)
COC(CN1C(=O)c2cccc3cccc(c23)C1=O)OC	> 100 µM (inactive)	53.5 µM (inactive)	26.2 µM (inactive)	73.1 µM (inactive)	56.9 µM (inactive)	43.4 µM (inactive)		> 100 µM (inactive)	> 100 µM (inactive)	42.4 µM (inactive)	> 100 µM (inactive)	> 100 µM (inactive)		> 100 µM (inactive)	> 100 µM (inactive)	1.61 µM (inactive)		74.3 µM (inactive)	73.5 µM (inactive)	57.7 µM (inactive)
Nc1sc2c(c1C(=O)c1ccc(Cl)c(Cl)c1)CCCC2	32.3 µM (inactive)	40.3 µM (inactive)	> 100 µM (inactive)	92 µM (inactive)	51.9 µM (inactive)	12.1 µM (inactive)	> 100 µM (inactive)	17.3 µM (inactive)	44.1 µM (inactive)	45 µM (inactive)	> 100 µM (inactive)	37.2 µM (inactive)		> 100 µM (inactive)	27.2 µM (inactive)	15 µM (inactive)	20.3 µM (inactive)	41.9 µM (inactive)	24.5 µM (inactive)	71.8 µM (inactive)
OCC(O)C(Cl)CCl (configuration not stated)	> 100 µM (inactive)		> 100 µM (inactive)	> 100 µM (inactive)	> 100 µM (inactive)	> 100 µM (inactive)	> 100 µM (inactive)	> 100 µM (inactive)	> 100 µM (inactive)	> 100 µM (inactive)	> 100 µM (inactive)	> 100 µM (inactive)	> 100 µM (inactive)	> 100 µM (inactive)			> 100 µM (inactive)	> 100 µM (inactive)		> 100 µM (inactive)
